Test system: Type-2 angiotensin II receptor (Oryctolagus cuniculus); call rule not given here
Experiment: Inhibitory activity against angiotensin II type 2 (AT2) receptor in rabbit uterine membranes at 10e-6 M; not active

IC50: Not Active
SMILES: COc1ccc2c(c1O)CC(C(=O)O)N(C(=O)N(C)c1ccccc1)C2 (stereo unspecified)
